Experimental findings from PMC11040934, “PI3Kγδ inhibition suppresses key disease features in a rat model of asthma” (Respiratory Research, 2024) are described below.

Common to all, as to type: in vivo, Brown Norway rat
For one test, the system named is PI3K pathway (pAkt). Nature of the test: Rat model of allergic asthma: lung tissue pAkt (T308), target engagement. As to conditions: i.t. 1 hr before OVA challenge; AZD8154 0.02, 0.1, 0.3 mg/kg, budesonide 3 mg/kg; lung 2 hrs after challenge. Here is the method:
(§1) Male, adult, Brown Norway rats were obtained from Charles River Germany at a body weight range of 250-300 g. Animals were housed in temperature controlled individually ventilated cages in groups of 4 with food and water provided ad libitum. Animals underwent acclimatisation for at least 1 week prior to experimentation. Experiments were performed in accordance with the UK Home Office guidelines for animal welfare based on the Animals (Scientific Procedures) Act of 1986 and the ARRIVE guidelines (Fig. E2).
Initially a time course study was performed, followed by a characterisation study with compound & clinical comparator. […]
5 μL of supernatant (1:50 dilution) was taken for Bradford Assay which was run according to manufacturers’ instructions (BioRad, USA). […] Absorbance was measured using a spectrophotometer and total protein values interpolated to standard curve (595 nm; Spectromax, UK).
10 μg of protein from lung tissue extract were utilized in pAkt (T308); pSTAT3, pSTAT4 & STAT5a, b (Phospho-STAT Panel kit) MSD Assay plates (Meso Scale Delivery, USA) and run according to manufacturers’ instructions. Arbitrary electrochemiluminescence signals were read, the blank subtracted and values determined in each plate using a MSD S-Plex plate reader (Meso Scale Delivery, USA).

Test [1] concerns Brown Norway rats, OVA sensitised and challenged. Nature of the test: Rat model of allergic asthma: BAL cellular inflammation. As to conditions: BAL 24 hrs after OVA challenge; i.t. dosing. Here is the method: as §1
Initially a time course study was performed, followed by a characterisation study with compound & clinical comparator. For both studies, rats were sensitised on day 0, 14 and 21 by an intraperitoneal (i.p.) injection of 4 mL/kg (1 mL/rat) of ovalbumin (OVA;100 μg/rat) in Imject™ Alum (20 mg/rat aluminium hydroxide and 20 mg/rat magnesium hydroxide) or sham sensitised (Saline [Sal] in Imject™ Alum). On day 28 rats were challenged with 1% (w/v) aerosolised OVA in isotonic saline, or sham challenged with isotonic saline (30 mins).
Following blood collection, rats underwent tracheostomy and were cannulated. Rats were lavaged and bronchoalveolar lavage (BAL) fluid was collected (2 × 3 mL RPMI, 30 secs, 70% vol. retained). Slides were prepared using 100 μL of neat BAL, centrifuged (700 rpm, 5 mins, RT, low acceleration; Cytospin 2, Shandon, Runcorn, UK). 800 μL of neat BAL was collected and centrifuged (800×g, 10 mins, 4 °C). Supernatant was collected and stored (− 80 °C), and cell pellet was resuspended (200 μL, RPMI), total leukocytes were attained using a Sysmex XP-300 automated cell counter (Sysmex Ltd., Milton Keynes, UK). Remaining BAL was centrifuged (800×g, 10 mins, 4 °C) and supernatant collected and stored (− 80 °C).
BAL cytospin slides were placed in an automated stainer (Hematek 2000, Ames. Co., USA) and stained with a Modified-Wright stain (Siemens, Germany). Differential cell counts using a light microscope were performed based on morphological criteria were performed to determine percentages of macrophages/monocytes, lymphocytes, neutrophils & eosinophils. Total numbers of each distinct cell type were determined based on total leukocyte numbers.

The test system is the same in test [2]. As to the kind of experiment: Rat model of allergic asthma: late asthmatic response (Penh, whole body plethysmography). The following applies: 1-6 hrs after OVA challenge; i.t. dosing. Here is the method:
as §1
Initially a time course study was performed, followed by a characterisation study with compound & clinical comparator. For both studies, rats were sensitised on day 0, 14 and 21 by an intraperitoneal (i.p.) injection of 4 mL/kg (1 mL/rat) of ovalbumin (OVA;100 μg/rat) in Imject™ Alum (20 mg/rat aluminium hydroxide and 20 mg/rat magnesium hydroxide) or sham sensitised (Saline [Sal] in Imject™ Alum). […]
In both studies, 30 mins post-challenge, rats were placed unrestrained in Perspex plethysmographs connected to bias flow pumps (DSI Europe Ltd), with food and water ad libitum. 55 mins post-challenge, a five mins baseline recording was taken and the average penh and area under the curve (AUC) was recorded at 10 mins intervals for a total duration of 5 hrs and was used for analysis (DSI Europe Ltd).

Molecules are shown by their SMILES.

Consider `CCCC1O[C@@H]2C[C@H]3[C@@H]4CCC5=CC(=O)C=C[C@]5(C)[C@H]4[C@@H](O)C[C@]3(C)[C@]2(C(=O)CO)O1` (some centres unmarked) [budesonide], for which the “lung tissue pAkt levels” value in the test on PI3K pathway (pAkt) is recorded as “dramatic inhibition”. In addition, in test [1], the BAL eosinophils result is given as “reversing these key features to basal levels”, the BAL neutrophils entry was “reversing these key features to basal levels” and the BAL total leukocytes entry was “reversing these key features to basal levels”. In addition, the “LAR (Penh, AUC)” value in test [2] is “inhibiting the lung function change”.
